Measured values published in patent publication US12390441B2, “Immunomodulating o-het/aryl azalides” (Zoetis Services LLC, priority 2020, dated 2025).
Marks after values point to notes of the source that are not given here.

What was measured:
TNF-α = test: Whole blood assay, LPS stimulation, MSD cytokine detection; type: cell-based; conditions: Bos taurus, fresh whole bovine blood
IL-1β = test: as above; type: cell-based, bovine; conditions: fresh whole bovine blood, LPS stimulation; drug concentration giving overstimulation (OS) of IL-1β
P. multocida 46572 = test: In vivo mouse lung infection challenge model (murine); parameters: species or system CD-1 female mice; conditions: for % Survival: 46572, sc, 20 mg/kg, 240 h
Experimental: The challenge organism was P. multocida 46572. Target challenge concentration was 5×10^2 CFU/mouse. Isolated colonies from overnight growth (37° C. with 5% CO2) on trypticase soy agar (TSA II) blood plates were transferred to room temperature Brain Heart Infusion Broth (BHIB). The broth culture was incubated 3.5-4 hours to approximately mid-log phase of growth, as measured by forward light scatter at 600 nm (OD600, 0.200). The culture was centrifuged to collect the bacterial pellet. The pellet was re-suspended in BHIB and adjusted to provide an approximate concentration of 2.7 log^10 colony forming units (CFU) in 0.04 mL at the highest concentration. The challenge inoculum concentration was confirmed by serial dilutions of the inoculum for CFU enumeration. On Day −5, CD-1 female mice were received. Mice were given standard rodent diet and water ad libitum. On Day 0, bacterial inoculum (0.04 mL) was administered to each mouse (n=36) intranasally. Compounds of the invention were dosed at 20 mg/kg (0.1 mL) in a buffered (˜pH 5.4) propylene glycol, monothioglycerol and water solution by subcutaneous injection. Animals were observed from Days 1-10. The study was terminated on Day 10. In addition, some treatment groups were sampled at 6, 24, and 48 hours post bacterial challenge for RNA sequence analysis of lung tissue.
The murine efficacy model (P. multocida challenge) was optimized, and the treatment group size was powered to be able to observe statistically significant improvement of survival to expected ranges for immunomodulatory compounds. The experimental design was a randomized complete block design. Mice were individually identified and treatment groups comingled within a cage, with every treatment group equally represented across cages. Mortality was the primary variable. Mortality data was analyzed using a generalized mixed model with fixed effect of treatment and random effect of block. Survival time was also analyzed using the SAS PHREG (survival analysis) procedure to examine whether there were significant differences between treatment groups and the control group. Numerous compounds of the invention and M9 (positive control) were tested in this model at a dose of 20 mg/kg (Table 3). Typical percent survival for no treatment control is in the range of 0-20% based on study to study variation in challenge inoculum and rate of infection. […] Mouse survival for M9 was about 90-100%, further supporting its residual antibacterial properties against the bacterial strain. Harmonized survival accounts for % survival relative to vehicle (“−” control) and M9 (“+” control)) survival data (Table 3).

IL-6 = test: Whole blood assay, LPS stimulation, MSD cytokine detection; type: cell-based; conditions: Bos taurus, fresh whole bovine blood
[1] = test system: BRD pathogens, M. haemolytica and P. multocida; test: In-vitro MIC model, BRD pathogen screening panel; type: cell-based, Mannheimia haemolytica; Pasteurella multocida; conditions: at least one BRD strain

Structure (SMILES)	IC50 (TNF-α) [µM]	IL-1ß OS of LPS (IL-1β) [µM]	% Survival (P. multocida 46572) [%]	IC50 (IL-6) [µM]	MIC flag at the example number (Table E) [1]	clinical efficacy, P. multocida infection in mice (P. multocida 46572; mouse, in vivo)
CCCNC[C@]1(O)[C@H](C)O[C@@H](O[C@H]2[C@H](C)[C@@H](O[C@@H]3O[C@H](C)C[C@H](N(C)C)[C@H]3Oc3ccccc3)[C@](C)(O)C[C@@H](C)CN[C@H](C)[C@@H](O)[C@](C)(O)[C@@H](CC)OC(=O)[C@@H]2C)C[C@@]1(C)OC [Example E-3, (2R,3S,4R,5R,8R,10R,11R,12S,13S,14R)-11-(((2S,3R,4S,6R)-4-(dimethylamino)-6-methyl-3-phenoxytetrahydro-2H-pyran-2-yl)oxy)-2-ethyl-3,4,10-trihydroxy-13-(((2R,4R,5S,6S)-5-hydroxy-4-methoxy-4,6-dimethyl-5-((propylamino)methyl)tetrahydro-2H-pyran-2-yl)oxy)-3,5,8,10,12,14-hexamethyl-1-oxa-6-azacyclopentadecan-15-one]	8	13	37			
CCCNC[C@]1(O)[C@H](C)O[C@@H](O[C@H]2[C@H](C)[C@@H](O[C@@H]3O[C@H](C)C[C@H](NC)[C@H]3Oc3ccc(C#N)cc3)[C@](C)(O)C[C@@H](C)CN[C@H](C)[C@@H](O)[C@](C)(O)[C@@H](CC)OC(=O)[C@@H]2C)C[C@@]1(C)OC [Example E-111, 4-(((2S,3R,4S,6R)-2-(((2R,3S,4R,5R,8R,10R,11R,12S,13S,14R)-2-ethyl-3,4,10-trihydroxy-13-(((2R,4R,5S,6S)-5-hydroxy-4-methoxy-4,6-dimethyl-5-((propylamino)methyl)tetrahydro-2H-pyran-2-yl)oxy)-3,5,8,10,12,14-hexamethyl-15-oxo-1-oxa-6-azacyclopentadecan-11-yl)oxy)-6-methyl-4-(methylamino)tetrahydro-2H-pyran-3-yl)oxy)benzonitrile]	9	80	22	90		
CC[C@H]1OC(=O)[C@H](C)[C@@H](O)[C@H](C)[C@@H](O[C@@H]2O[C@H](C)C[C@H](N(C)C(=O)N(C)c3ccccc3)[C@H]2Oc2ccc(OC)cc2)[C@](C)(O)C[C@@H](C)CN[C@H](C)[C@@H](O)[C@]1(C)O [Example C-1, 1-((2S,3R,4S,6R)-2-(((2R,3S,4R,5R,8R,10R,11R,12S,13S,14R)-2-ethyl-3,4,10,13-tetrahydroxy-3,5,8,10,12,14-hexamethyl-15-oxo-1-oxa-6-azacyclopentadecan-11-yl)oxy)-3-(4-methoxyphenoxy)-6-methyltetrahydro-2H-pyran-4-yl)-1,3-dimethyl-3-phenylurea]	8	16	33	19		
CC[C@H]1OC(=O)[C@H](C)[C@@H](O)[C@H](C)[C@@H](O[C@@H]2O[C@H](C)C[C@H](N(C)C(=O)N(C)c3ccccc3)[C@H]2Oc2ccccc2)[C@](C)(O)C[C@@H](C)CN[C@H](C)[C@@H](O)[C@]1(C)O [Example C-2, 1-((2S,3R,4S,6R)-2-(((2R,3S,4R,5R,8R,10R,11R,12S, 13S, 14R)-2-ethyl-3,4,10,13-tetrahydroxy-3,5,8,10,12,14-hexamethyl-15-oxo-1-oxa-6-azacyclopentadecan-11-yl)oxy)-6-methyl-3-phenoxytetrahydro-2H-pyran-4-yl)-1,3-dimethyl-3-phenylurea]	27	16	54	32		
CCCNC[C@]1(O)[C@H](C)O[C@@H](O[C@H]2[C@H](C)[C@@H](O[C@@H]3O[C@H](C)C[C@H](NC)[C@H]3Oc3ncc(Cl)cn3)[C@](C)(O)C[C@@H](C)CN[C@H](C)[C@@H](O)[C@](C)(O)[C@@H](CC)OC(=O)[C@@H]2C)C[C@@]1(C)OC [Example E-30, (2R,3S,4R,5R,8R,10R,11R,12S,13S,14R)-11-(((2S,3R,4S,6R)-3-((5-chloropyrimidin-2-yl)oxy)-6-methyl-4-(methylamino)tetrahydro-2H-pyran-2-yl)oxy)-2-ethyl-3,4,10-trihydroxy-13-(((2R,4R,5S,6S)-5-hydroxy-4-methoxy-4,6-dimethyl-5-((propylamino)methyl)tetrahydro-2H-pyran-2-yl)oxy)-3,5,8,10,12,14-hexamethyl-1-oxa-6-azacyclopentadecan-15-one]	7	13	22			
CC[C@H]1OC(=O)[C@H](C)[C@@H](O[C@H]2C[C@@](C)(OC)[C@@H](O)[C@H](C)O2)[C@H](C)[C@@H](O[C@@H]2O[C@H](C)C[C@H](NC)[C@H]2Oc2ccccc2)[C@](C)(O)C[C@@H](C)CN(C)[C@H](C)[C@@H](O)[C@]1(C)O [Example A-26, (2R,3S,4R,5R,8R,10R,11R,12S,13S,14R)-2-ethyl-3,4,10-trihydroxy-13-(((2R,4R,5S,6S)-5-hydroxy-4-methoxy-4,6-dimethyltetrahydro-2H-pyran-2-yl)oxy)-3,5,6,8,10,12,14-heptamethyl-11-(((2S,3R,4S,6R)-6-methyl-4-(methylamino)-3-phenoxytetrahydro-2H-pyran-2-yl)oxy)-1-oxa-6-azacyclopentadecan-15-one]	20	16	1			
CCCNC[C@]1(O)[C@H](C)O[C@@H](O[C@H]2[C@H](C)[C@@H](O[C@@H]3O[C@H](C)C[C@H](NC)[C@H]3Oc3ccc(F)cc3)[C@](C)(O)C[C@@H](C)CN[C@H](C)[C@@H](O)[C@](C)(O)[C@@H](CC)OC(=O)[C@@H]2C)C[C@@]1(C)OC [Example E-1, (2R,3S,4R,5R,8R,10R,11R,12S,13S,14R)-2-ethyl-11-(((2S,3R,4S,6R)-3-(4-fluorophenoxy)-6-methyl-4-(methylamino)tetrahydro-2H-pyran-2-yl)oxy)-3,4,10-trihydroxy-13-(((2R,4R,5S,6S)-5-hydroxy-4-methoxy-4,6-dimethyl-5-((propylamino)methyl)tetrahydro-2H-pyran-2-yl)oxy)-3,5,8,10,12,14-hexamethyl-1-oxa-6-azacyclopentadecan-15-one]	6	32	57		E-1* (MIC ≤ 64 μg/mL for at least one BRD strain)	
CCCNC[C@]1(O)[C@H](C)O[C@@H](O[C@H]2[C@H](C)[C@@H](O[C@@H]3O[C@H](C)C[C@H](NC)[C@H]3Oc3ccc(Cl)nc3)[C@](C)(O)C[C@@H](C)CN[C@H](C)[C@@H](O)[C@](C)(O)[C@@H](CC)OC(=O)[C@@H]2C)C[C@@]1(C)OC [Example E-8, (2R,3S,4R,5R,8R,10R,11R,12S,13S,14R)-11-(((2S,3R,4S,6R)-3-((6-chloropyridin-3-yl)oxy)-6-methyl-4-(methylamino)tetrahydro-2H-pyran-2-yl)oxy)-2-ethyl-3,4,10-trihydroxy-13-(((2R,4R,5S,6S)-5-hydroxy-4-methoxy-4,6-dimethyl-5-((propylamino)methyl)tetrahydro-2H-pyran-2-yl)oxy)-3,5,8,10,12,14-hexamethyl-1-oxa-6-azacyclopentadecan-15-one]	25	100	36	110		
CC[C@H]1OC(=O)[C@H](C)[C@@H](O)[C@H](C)[C@@H](O[C@@H]2O[C@H](C)C[C@H](NC)[C@H]2Oc2ccc(F)cc2)[C@](C)(O)C[C@@H](C)CN[C@H](C)[C@@H](O)[C@]1(C)O [Example B-4, (2R,3S,4R,5R,8R,10R,11R,12S,13S,14R)-2-ethyl-11-(((2S,3R,4S,6R)-3-(4-fluorophenoxy)-6-methyl-4-(methylamino)tetrahydro-2H-pyran-2-yl)oxy)-3,4,10,13-tetrahydroxy-3,5,8,10,12,14-hexamethyl-1-oxa-6-azacyclopentadecan-15-one]	50	100	0	50		clinically efficacious
